In this assay the test system is Male NMRI (SPF) mice fed a low-iron diet. Briefly: Fe utilization in iron-deficient mouse model. It is filed as in vivo. The conditions noted are these: male NMRI mice on low-iron diet (approx. 5 ppm iron); 2 mg iron/kg body weight/day by stomach tube, days 1-5 and 8-12; utilization on day 15 calculated from hemoglobin and body weight increase versus control group. As for the experimental part:
The excellent Fe utilizations that can be accomplished through the Fe complexes according to the invention were measured by means of the following mouse model.
Male NMRI (SPF) mice (approximately 3 weeks old) were fed a low-iron diet (approx. 5 ppm iron) for approximately 3 weeks. The iron complexes were then administered to them by means of a stomach tube (2 mg iron/kg body weight/day) for 2 times 5 days, with an interruption of 2 days (days 1-5 and 8-12). Utilization on day 15 was calculated from the hemoglobin increase and the body weight increase in accordance with the formula
[formula] • 0.07=Factor for 70 ml blood per kg body weight (BW) • 0.0034=Factor for 0.0034 g Fe/g Hb • Hb1=Hemoglobin level (g/I) on day 1 • Hb2(3)=Hemoglobin level (g/I) on day 8 (or 15) • BW4=body weight (g) on day 1 • BW9(14)=body weight (g) on day 8 (or 15) • Hb1 Control=average hemoglobin level (g/I) on day 1 in the control group, • Hb2(3) Control=average hemoglobin level (g/I) on day 8 (or 15) in the control group, • BW4 Control=average body weight (g) on day 1 in the control group, • BW9(14) Control=average body weight (g) on day 8 (or 15) in the control group, • Fe Dos.=entire administered iron (mg Fe) over 5 or 10 days, • Fe ut.=(Hb2(3)*BW9(14)-Hb1*BW4)*0.07*0.0034 (mg Fe) Δ Utilization=Fe tot. utilized (examined group)—Fe ut. Control group, utilized from food, (mg Fe)

In the case of “Tris-(1-(morpholin-4-yl)pentane-1,3-dione)-iron(III)-complex [Example 62]”, the “Utilization n 15 d (abs. %)” value was 68 abs. %.

In the case of “Tris-(N-(2-Hydroxyethyl)-N,4-dimethyl-3-oxopentanamide)-iron(11)-complex [Example 65]”, the “Utilization n 15 d (abs. %)” value is listed as 73 abs. %.

The values are drawn from patent publication US9943498B2, “Fe(III) complex compounds for the treatment and prophylaxis of iron deficiency symptoms and iron deficiency anemias” (Vifor (International) AG, priority 2010, dated 2018).
